Measurements from US9187472B2 (AbbVie Inc., priority 2012, dated 2015).

Key:
[1] = target: NAMPT (human, recombinant, C-terminally His-tagged) (Homo sapiens, UniProt P43490); experiment: Time-Resolved Fluorescence Resonance Energy Transfer (TR-FRET) Binding Assay of NAMPT; details: without substrates; 6.8 nM NAMPT, 200 nM probe, 3 hours equilibration
How it was run: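 In a displacement format, the nicotinamide-site tracer at 200 nM competed with test compound for 6.8 nM enzyme detected via 1 nM terbium anti-His antibody; incubation lasted 3 hours at room temperature in 50 mM HEPES pH 7.5, 100 mM NaCl. Normalized 520/495 nm emission ratios gave IC50 values.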

NAMPT = NAMPT (Homo sapiens, UniProt P43490); experiment: TR-FRET Binding Assay of NAMPT with PRPP; details: with 200 μM PRPP and 2.5 mM ATP; 2 nM NAMPT, 2 nM probe, 16 hours equilibration
How it was run: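 Substrate-containing variant: 200 μM PRPP plus 2.5 mM ATP are added to 2 nM NAMPT and 2 nM probe, with a 16-hour incubation ahead of TR-FRET reading.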

PC3 cells = experiment: NAMPT Cell Proliferation Assay; assay type: cell-based; details: Homo sapiens, PC-3, 120 h, 5 days incubation, cell viability by Cell Titer Glo
How it was run: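 Seed PC3 at 500 cells/well (RPMI, 10% HI-FBS), attach overnight; add compound, 10-fold series 10 μM → 1×10^−5 μM; incubate 5 d, 37° C/5% CO2; luminescent viability readout; fit % inhibition sigmoidally for IC50.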

Chain of NAMPT (P43490 whole entry): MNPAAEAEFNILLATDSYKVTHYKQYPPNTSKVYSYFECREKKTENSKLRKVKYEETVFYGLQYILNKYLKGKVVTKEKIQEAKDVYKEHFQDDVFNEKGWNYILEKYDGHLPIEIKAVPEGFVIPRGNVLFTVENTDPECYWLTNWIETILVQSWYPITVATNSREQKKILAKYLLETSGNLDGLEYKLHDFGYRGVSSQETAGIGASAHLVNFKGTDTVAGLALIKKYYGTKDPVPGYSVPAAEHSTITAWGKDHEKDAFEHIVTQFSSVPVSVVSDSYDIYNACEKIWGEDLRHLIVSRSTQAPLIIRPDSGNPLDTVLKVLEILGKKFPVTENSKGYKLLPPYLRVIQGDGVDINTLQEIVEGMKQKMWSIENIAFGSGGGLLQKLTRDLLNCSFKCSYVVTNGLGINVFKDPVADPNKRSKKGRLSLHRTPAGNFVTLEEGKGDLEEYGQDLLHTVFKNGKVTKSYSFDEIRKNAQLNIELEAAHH
Chain of NAMPT (human, recombinant, C-terminally His-tagged) (P43490 whole entry): as above

O=C(NCc1ccn2ccnc2c1)Nc1ccc(C2CCN(C(=O)CC3CC3)CC2)cc1 [Example 712, 1-{4-[1-(cyclopropylacetyl)piperidin-4-yl]phenyl}-3-(imidazo[1,2-a]pyridin-7-ylmethyl)urea]
IC50 [1]: 0.0911 µM
IC50 (NAMPT): 0.000907 µM
IC50 (PC3 cells): 0.0058 µM

O=C(NCc1ccn2ccnc2c1)Nc1ccc(C2CCN(C(=O)CC(F)(F)F)CC2)cc1 [Example 713, 1-(imidazo[1,2-a]pyridin-7-ylmethyl)-3-{4-[1-(3,3,3-trifluoropropanoyl)piperidin-4-yl]phenyl}urea]
IC50 [1]: 0.0443 µM
IC50 (NAMPT): 0.000689 µM
IC50 (PC3 cells): 0.00286 µM

O=C(NCc1ccn2ccnc2c1)Nc1ccc(C2CCN(C(=O)CCC(F)(F)F)CC2)cc1 [Example 714, 1-(imidazo[1,2-a]pyridin-7-ylmethyl)-3-{4-[1-(4,4,4-trifluorobutanoyl)piperidin-4-yl]phenyl}urea]
IC50 [1]: 0.168 µM
IC50 (NAMPT): 0.000991 µM
IC50 (PC3 cells): 0.0174 µM

O=C(NCc1ccn2ccnc2c1)Nc1ccc(C2CCN(C(=O)C3CCC(F)(F)CC3)CC2)cc1 [Example 715, 1-(4-{1-[(4,4-difluorocyclohexyl)carbonyl]piperidin-4-yl}phenyl)-3-(imidazo[1,2-a]pyridin-7-ylmethyl)urea]
IC50 [1]: 0.0659 µM
IC50 (NAMPT): 0.000771 µM
IC50 (PC3 cells): 0.00349 µM

O=C(NCc1ccn2ccnc2c1)Nc1ccc(C2CCN(C(=O)Cc3ccccc3)CC2)cc1 [Example 716, 1-(imidazo[1,2-a]pyridin-7-ylmethyl)-3-{4-[1-(phenylacetyl)piperidin-4-yl]phenyl}urea]
IC50 [1]: 0.0502 µM
IC50 (NAMPT): 0.000607 µM
IC50 (PC3 cells): 0.021 µM

O=C(NCc1ccn2ccnc2c1)c1ccc(C2CCN(C(=O)C3CC3)C2)s1 (stereo not drawn) [Example 717, 5-[1-(cyclopropylcarbonyl)pyrrolidin-3-yl]-N-(imidazo[1,2-a]pyridin-7-ylmethyl)thiophene-2-carboxamide]
IC50 [1]: 0.186 µM
IC50 (NAMPT): 0.000428 µM
IC50 (PC3 cells): 0.0724 µM

Cc1ccc(C(=O)N2CCC(c3ccc(C(=O)NCc4ccn5ccnc5c4)s3)C2)cc1 (stereo not drawn) [Example 718, N-(imidazo[1,2-a]pyridin-7-ylmethyl)-5-[1-(4-methylbenzoyl)pyrrolidin-3-yl]thiophene-2-carboxamide]
IC50 [1]: 0.0236 µM
IC50 (NAMPT): 0.000755 µM
IC50 (PC3 cells): 0.00125 µM

O=C(NCc1ccn2ccnc2c1)Nc1ccc(C2CCN(C(=O)c3ccccc3F)CC2)cc1 [Example 719, 1-{4-[1-(2-fluorobenzoyl)piperidin-4-yl]phenyl}-3-(imidazo[1,2-a]pyridin-7-ylmethyl)urea]
IC50 [1]: 0.00632 µM
IC50 (NAMPT): 0.000835 µM
IC50 (PC3 cells): 0.00237 µM

O=C(NCc1ccn2ccnc2c1)Nc1ccc(C2CCN(C(=O)c3cccc(F)c3)CC2)cc1 [Example 720, 1-{4-[1-(3-fluorobenzoyl)piperidin-4-yl]phenyl}-3-(imidazo[1,2-a]pyridin-7-ylmethyl)urea]
IC50 [1]: 0.0367 µM
IC50 (NAMPT): 0.000181 µM
IC50 (PC3 cells): 0.00582 µM

O=C(NCc1ccn2ccnc2c1)Nc1ccc(C2CCN(C(=O)c3ccc(F)cc3)CC2)cc1 [Example 721, 1-{4-[1-(4-fluorobenzoyl)piperidin-4-yl]phenyl}-3-(imidazo[1,2-a]pyridin-7-ylmethyl)urea]
IC50 [1]: 0.125 µM
IC50 (NAMPT): 0.00121 µM
IC50 (PC3 cells): 0.0307 µM

O=C(NCc1ccn2ccnc2c1)Nc1ccc(C2CCN(C(=O)c3ccc(F)cc3F)CC2)cc1 [Example 722, 1-{4-[1-(2,4-difluorobenzoyl)piperidin-4-yl]phenyl}-3-(imidazo[1,2-a]pyridin-7-ylmethyl)urea]
IC50 [1]: 0.0394 µM
IC50 (NAMPT): 0.00101 µM
IC50 (PC3 cells): 0.00388 µM

O=C(NCc1ccn2ccnc2c1)Nc1ccc(C2CCN(C(=O)c3ccc(F)c(F)c3)CC2)cc1 [Example 723, 1-{4-[1-(3,4-difluorobenzoyl)piperidin-4-yl]phenyl}-3-(imidazo[1,2-a]pyridin-7-ylmethyl)urea]
IC50 [1]: 0.154 µM
IC50 (NAMPT): 0.000932 µM
IC50 (PC3 cells): 0.0716 µM

O=C(NCc1ccn2ccnc2c1)Nc1ccc(C2CCN(C(=O)c3cc(F)cc(F)c3)CC2)cc1 [Example 724, 1-{4-[1-(3,5-difluorobenzoyl)piperidin-4-yl]phenyl}-3-(imidazo[1,2-a]pyridin-7-ylmethyl)urea]
IC50 [1]: 0.161 µM
IC50 (NAMPT): 0.000992 µM
IC50 (PC3 cells): 0.0632 µM

O=C(NCc1ccn2ccnc2c1)Nc1ccc(C2CCN(C(=O)c3cc(F)ccc3F)CC2)cc1 [Example 725, 1-{4-[1-(2,5-difluorobenzoyl)piperidin-4-yl]phenyl}-3-(imidazo[1,2-a]pyridin-7-ylmethyl)urea]
IC50 [1]: 0.0196 µM
IC50 (NAMPT): 0.000747 µM
IC50 (PC3 cells): 0.006 µM

O=C(NCc1ccn2ccnc2c1)Nc1ccc(OC2CCN(C(=O)c3cccc(F)c3)CC2)cc1 [Example 726, 1-(4-{[1-(3-fluorobenzoyl)piperidin-4-yl]oxy}phenyl)-3-(imidazo[1,2-a]pyridin-7-ylmethyl)urea]
IC50 [1]: 0.251 µM
IC50 (NAMPT): 0.000534 µM
IC50 (PC3 cells): 0.0719 µM

O=C(NCc1ccn2ccnc2c1)Nc1ccc(OC2CCN(C(=O)c3ccc(F)cc3F)CC2)cc1 [Example 727, 1-(4-{[1-(2,4-difluorobenzoyl)piperidin-4-yl]oxy}phenyl)-3-(imidazo[1,2-a]pyridin-7-ylmethyl)urea]
IC50 [1]: 0.166 µM
IC50 (NAMPT): 0.000783 µM
IC50 (PC3 cells): 0.0582 µM

O=C(NCc1ccn2ccnc2c1)Nc1ccc(OC2CCN(C(=O)c3cc(F)ccc3F)CC2)cc1 [Example 728, 1-(4-{[1-(2,5-difluorobenzoyl)piperidin-4-yl]oxy}phenyl)-3-(imidazo[1,2-a]pyridin-7-ylmethyl)urea]
IC50 [1]: 0.14 µM
IC50 (NAMPT): 0.000496 µM
IC50 (PC3 cells): 0.021 µM

O=C(NCc1ccn2ccnc2c1)Nc1ccc(OC2CCN(C(=O)c3ccc(F)c(F)c3)CC2)cc1 [Example 729, 1-(4-{[1-(3,4-difluorobenzoyl)piperidin-4-yl]oxy}phenyl)-3-(imidazo[1,2-a]pyridin-7-ylmethyl)urea]
IC50 [1]: 0.428 µM
IC50 (NAMPT): 0.000765 µM
IC50 (PC3 cells): 0.0459 µM

O=C(NCc1ccn2ccnc2c1)Nc1ccc(OC2CCN(C(=O)c3cc(F)cc(F)c3)CC2)cc1 [Example 730, 1-(4-{[1-(3,5-difluorobenzoyl)piperidin-4-yl]oxy}phenyl)-3-(imidazo[1,2-a]pyridin-7-ylmethyl)urea]
IC50 [1]: 0.489 µM
IC50 (NAMPT): 0.000847 µM
IC50 (PC3 cells): 0.0295 µM

O=C(NCc1ccn2ccnc2c1)c1ccc(C2CCN(C(=O)Cc3ccccc3)C2)cc1 (stereo not drawn) [Example 731, N-(imidazo[1,2-a]pyridin-7-ylmethyl)-4-[1-(phenylacetyl)pyrrolidin-3-yl]benzamide]
IC50 [1]: 0.223 µM
IC50 (NAMPT): 0.000391 µM
IC50 (PC3 cells): 0.05 µM

CC(C)(C(=O)N1CCC(c2ccc(C(=O)NCc3ccn4ccnc4c3)cc2)C1)c1ccccc1 (stereo not drawn) [Example 732, N-(imidazo[1,2-a]pyridin-7-ylmethyl)-4-[1-(2-methyl-2-phenylpropanoyl)pyrrolidin-3-yl]benzamide]
IC50 [1]: 0.0213 µM
IC50 (NAMPT): 0.000471 µM
IC50 (PC3 cells): 0.0059 µM

O=C(NCc1ccn2ccnc2c1)c1ccc(C2CCN(C(=O)C(F)(F)c3ccccc3)C2)cc1 (stereo not drawn) [Example 733, 4-{1-[difluoro(phenyl)acetyl]pyrrolidin-3-yl}-N-(imidazo[1,2-a]pyridin-7-ylmethyl)benzamide]
IC50 [1]: 0.119 µM
IC50 (NAMPT): 0.000712 µM
IC50 (PC3 cells): 0.0202 µM

CC1(Cn2cc(-c3ccc(C(=O)NCc4ccn5ccnc5c4)o3)cn2)CCOCC1 [Example 734, N-(imidazo[1,2-a]pyridin-7-ylmethyl)-5-{1-[(4-methyltetrahydro-2H-pyran-4-yl)methyl]-1H-pyrazol-4-yl}furan-2-carboxamide]
IC50 [1]: 0.0142 µM
IC50 (NAMPT): 0.000605 µM
IC50 (PC3 cells): 0.000553 µM

O=C(NCc1ccn2ccnc2c1)c1ccc(C2CCN(C(=O)c3ccccc3F)CC2)o1 [Example 735, 5-[1-(2-fluorobenzoyl)piperidin-4-yl]-N-(imidazo[1,2-a]pyridin-7-ylmethyl)furan-2-carboxamide]
IC50 [1]: 0.646 µM
IC50 (NAMPT): 0.000864 µM
IC50 (PC3 cells): 0.688 µM

CC(C)C(=O)N1CCC(c2ccc(C(=O)NCc3ccn4ccnc4c3)o2)CC1 [Example 736, N-(imidazo[1,2-a]pyridin-7-ylmethyl)-5-[1-(2-methylpropanoyl)piperidin-4-yl]furan-2-carboxamide]
IC50 [1]: 3.09 µM
IC50 (NAMPT): 0.00073 µM
IC50 (PC3 cells): 8.36 µM

N#Cc1ccccc1C(=O)N1CCC(c2ccc(C(=O)NCc3ccn4ccnc4c3)cc2)CC1 [Example 737, 4-[1-(2-cyanobenzoyl)piperidin-4-yl]-N-(imidazo[1,2-a]pyridin-7-ylmethyl)benzamide]
IC50 [1]: 0.0704 µM
IC50 (NAMPT): 0.000612 µM
IC50 (PC3 cells): 0.00405 µM

O=C(NCc1ccn2ccnc2c1)c1ccc(-c2cnn(CC(F)(F)F)c2)o1 [Example 738, N-(imidazo[1,2-a]pyridin-7-ylmethyl)-5-[1-(2,2,2-trifluoroethyl)-1H-pyrazol-4-yl]furan-2-carboxamide]
IC50 [1]: 0.364 µM
IC50 (NAMPT): 0.000705 µM
IC50 (PC3 cells): 0.0859 µM

O=C(Cc1ccn2ccnc2c1)Nc1ccc(NC(=O)CC2CCCC2)cc1 [Example 739, 2-cyclopentyl-N-{4-[(imidazo[1,2-a]pyridin-7-ylacetyl)amino]phenyl}acetamide]
IC50 [1]: 0.0377 µM
IC50 (NAMPT): 0.000672 µM
IC50 (PC3 cells): 0.0676 µM
